Measurements as given in the CheMixHub viscosity set.

Legend:
[1] = xn = mol fraction of the nth substance listed
[2] = 102 kPa

O=Cc1ccccc1 + CCc1ccccc1
viscosity [mPa·s], [1], 101 kPa
Conditions	x1 = 0.1197	x1 = 0.2343	x1 = 0.3441	x1 = 0.4494	x1 = 0.5504	x1 = 0.6474	x1 = 0.7407	x1 = 0.8304	x1 = 0.9168
303.15 K	0.6517	0.704	0.7588	0.8174	0.882	0.9577	1.043	1.13	1.203
308.15 K	0.6199	0.6713	0.7283	0.7882	0.8554	0.93	1.014	1.102	1.181
313.15 K	0.584	0.6318	0.691	0.7573	0.8273	0.9007	0.9837	1.07	1.158

CC(C)CCCC(C)CCCC(C)CCCCC(C)CCCC(C)CCCC(C)C (centres undefined) + CCCC
viscosity [mPa·s], [1]
Conditions	x1 = 0.161	x1 = 0.162	x1 = 0.316	x1 = 0.319	x1 = 0.555	x1 = 0.559	x1 = 0.721	x1 = 0.724
293.15 K, 101 kPa	1.06	–	3	–	9.55	–	16.5	–
293.15 K, 101.33 kPa	1.06	–	3	–	9.55	–	16.5	–
313.15 K, 101 kPa	–	0.797	–	2.04	–	5.26	–	8.16
313.15 K, 101.33 kPa	–	0.797	–	2.04	–	5.26	–	8.16

CCCCCCCCCCCCO + CCCCCCCCO
viscosity [mPa·s], [1], 101.8 kPa
Conditions	x2 = 0.1377	x2 = 0.3798	x2 = 0.589	x2 = 0.7701	x2 = 0.9281
298.15 K	15.08	12.91	11.11	9.509	8.204
308.15 K	10.21	8.958	7.745	6.704	5.873
318.15 K	7.201	6.357	5.553	4.856	4.284

Cc1ccc(C)cc1 + C1CCCCC1
[1], 101 kPa
Conditions	viscosity [mPa·s]
303 K, x1 = 0.1025	0.7341
303 K, x1 = 0.2016	0.6783
303 K, x1 = 0.2982	0.6363
303 K, x1 = 0.402	0.6131
303 K, x1 = 0.4944	0.5946
303 K, x1 = 0.5992	0.5858
303 K, x1 = 0.7997	0.5735
303 K, x1 = 0.8951	0.5721
303.15 K, x2 = 0.1016	0.5673
303.15 K, x2 = 0.1997	0.572
303.15 K, x2 = 0.2851	0.5782
303.15 K, x2 = 0.3934	0.591
303.15 K, x2 = 0.4966	0.611
303.15 K, x2 = 0.5961	0.6362
303.15 K, x2 = 0.6976	0.6682
303.15 K, x2 = 0.7954	0.7086
303.15 K, x2 = 0.8986	0.763
313 K, x1 = 0.1025	0.6343
313 K, x1 = 0.2016	0.5965
313 K, x1 = 0.2982	0.5693
313 K, x1 = 0.402	0.5417
313 K, x1 = 0.4944	0.5288
313 K, x1 = 0.5992	0.5165
313 K, x1 = 0.6952	0.5142
313 K, x1 = 0.7997	0.5159
323 K, x1 = 0.1025	0.54
323 K, x1 = 0.2016	0.5237
323 K, x1 = 0.2982	0.4976
323 K, x1 = 0.402	0.4831
323 K, x1 = 0.4944	0.4765
323 K, x1 = 0.6952	0.462
323 K, x1 = 0.7997	0.4612
323 K, x1 = 0.8951	0.4608

Cc1ccc(C)cc1 + CC(C)=O
[1], 307.35 K, 101.33 kPa
Conditions	viscosity [mPa·s]
x2 = 0.1403	0.5
x2 = 0.4308	0.429
x2 = 0.5768	0.4
x2 = 0.6298	0.385
x2 = 0.7285	0.353
x2 = 0.9118	0.311

CCCC[N+](CCCC)(CCCC)CCCC.[Cl-] + N[C@@H](CO)C(=O)O
Conditions	viscosity [mPa·s]
[1], 323.15 K, 101 kPa, x1 = 0.9	491

CC(O)C(C)O (centres undefined) + CN(C)C=O
[1], 308.15 K, 101 kPa
Conditions	viscosity [mPa·s]
x1 = 0.0509	0.724
x1 = 0.1003	0.859
x1 = 0.1898	1.033
x1 = 0.2855	1.36
x1 = 0.3729	1.788
x1 = 0.4785	2.544
x1 = 0.5949	5.332
x1 = 0.6808	8.504
x1 = 0.7219	10.79
x1 = 0.8883	24.97
x1 = 0.942	34.78

CCc1cccc(CC)c1
[2]
Conditions	viscosity [mPa·s]
293.15 K	0.852
303.15 K	0.751
313.15 K	0.668
323.15 K	0.598

CCCCCCCCCCCCCCCCCC(=O)OC + CCCCCC
viscosity [mPa·s], [1], 101 kPa
Conditions	x1 = 0.05	x1 = 0.1	x1 = 0.15	x1 = 0.2	x1 = 0.25	x1 = 0.3
298 K	0.48	0.67	0.85	1.08	1.22	1.41
303 K	0.46	0.63	0.79	0.99	1.13	1.3
308 K	0.44	0.59	0.74	0.92	1.05	1.21
313 K	0.42	0.55	0.69	0.85	0.98	1.12

C=C(C)C(=O)OCCCCCCC + CCCCCC
viscosity [mPa·s], [1], 101 kPa
Conditions	x1 = 0.002	x1 = 0.005	x1 = 0.01	x1 = 0.02
303 K	0.2814	0.2918	0.2946	0.3052
313 K	0.2567	0.2692	0.2692	0.2801
323 K	0.2346	0.2442	0.247	0.2568
